Patent US8791158B2, “Methods of treating meibomian gland dysfunction” (GTX, Inc., priority 2010, dated 2014)

System: acute, orchiectomized (ORX) rabbit model
Assay: Tear fatty acid composition (palmitate:stearate ratio) after Compound 2 or TP, Example 3
Assay type: in vivo
Conditions: ORX rabbits; for Tear palmitate:stearate ratio after 4 week washout: then untreated 4 weeks
Excerpt: The goal of this study was to compare the effect of Compound 2 to testosterone propionate (TP) on tear composition in an acute, orchiectomized (ORX) rabbit model.
Fifteen New Zealand white rabbits weighing approximately 3 lbs were allowed to acclimate for 4 weeks before the start of the study. Animals were weighed on day 0 of the study, randomized according to body weight and allotted to the following dose groups:
Pre-dose tear and blood samples were collected. Animals from groups 2-5 were to premedicated with glycopyrrolate (0.02 mg/kg) and then anesthesia was induced with a combination of ketamine (15 mg/kg): medetomidine (0.25 mg/kg).
Anesthesia was maintained with isoflurane (1 liter/hr). Orchiectomy was performed using a scrotal incision. Animals were revived from anesthesia using atipamezole (1 mg/kg) SQ. Analgesia was provided with buprenorphine (0.05 mg/kg) Immediately after the animals had recovered from anesthesia, they received their first dose with the appropriate test articles as indicated above.
Drug dosing was done once daily for 14 days. Blood was collected at 60 minutes post administration of the last dose of drug and plasma separated for HPLC analysis of parent drug concentrations.
Tears were collected using Schirmer tear strips (Alcon, Tex.) on day 0 before surgery, 24 hours after the last administration of drug (day 15) and also at 42 days (6 weeks after start of study). The tears were stored at −80° C. prior to lipid analysis.
Lipids were hydrolyzed, extracted from the Schirmer strips, derivatized, and subjected to gas chromatography with flame ionization detector (GCFID) to evaluate the lipid composition.
The samples were evaluated for the presence of 28 saturated and unsaturated fatty acids that included methyl caprate (C10:0), methyl laurate (C12:0), methyl 11-dodecenoate (C12:1), methyl myristate (C14:0), methyl myristoleate (C14:1), methyl palmitate (C16:0), methyl palmitoleate (C16:1), methyl stearate (C18:0), methyl oleate (C18:1), methyl vaccenate (C18:1), methyl linoleate (C18:2), methyl gamma linoleate (C18:3), methyl linoleate (C18:3), methyl arachidate (C20:0), methyl 11-eicosenoate (C20:1), methyl 11,14 eicosadinoate (C20:2), methyl 8,11,14 eicosatrienoate (C20:3), methyl eicosapentaenoate (C20:5), methyl behenate (C22:0), methyl erucate (C22:1), methyl 13,16 docosaenoate (C22:2), methyl docosatetraenoate (C22:4), methyl docosapentaenoate (C22:5), methyl docosahexaenoate (C22:6), methyl lignocerate (C24:0), and methyl nervonate (C24:1).
The area under the curve for each individual peak was determined using GC ChemStation software. […] These samples were then washed with a saturated solution of NaCl+0.1% formic acid (FA). […] These samples were all in the predose tear group. Two more samples from the predose group and one sample from Vehicle Intact treated group had small but clear and well to separated peaks that were included in the analysis.
To normalize for the tear content, the lipid composition was expressed as a ratio of the lipid that was most affected by castration (palmitate) to one which remained relatively constant (stearate). Blood was also collected on day 15 (24 hours after last drug administration) of the study, plasma separated and analyzed for Compound 2.
The last dose of drug or vehicle was administered on day 15 of the study Animals were left untreated for 4 weeks (washout period) before tear samples were collected again on Schirmer tear strips and analyzed as indicated above.

Question: `C[C@](O)(COc1ccc(C#N)c(F)c1)C(=O)Nc1ccc(C#N)c(C(F)(F)F)c1` [Compound 2, (S)—N-(4-cyano-3-(trifluoromethyl)phenyl)-3-(4-cyano-3-fluorophenoxy)-2-hydroxy-2-methylpropanamide] was tested. Which “Increase of tear palmitate:stearate ratio relative to intact animals” value (2.5 mg/kg, 14 days) did it give?
Answer: two times that of intact animals

Question: And the “Tear palmitate:stearate ratio after 4 week washout” value (SQ 2.5 mg/kg for two weeks)?
Answer: 1.47±0.172

Question: What about the “Tear palmitate:stearate ratio after 4 week washout” value (topical 2.5 mg/kg for two weeks) of the same compound?
Answer: 1.66±0.426
